The values below are quoted from earlier work in EP1336411A1, “Compositions and methods for improving enzyme replacement therapy of lysosomal storage diseases” (Academisch Medisch Centrum bij de Universiteit van Amsterdam, priority 2002, dated 2003).

The series has as its target alpha-Galactosidase A (Homo sapiens, UniProt P06280). The following applies: read-out: apparent Km; artificial substrate 4-methylumbelliferyl-alpha-D-galactopyranoside; pH 4.6 (maximal activity).

alpha-Galactosidase A, sequence (P06280 32-429): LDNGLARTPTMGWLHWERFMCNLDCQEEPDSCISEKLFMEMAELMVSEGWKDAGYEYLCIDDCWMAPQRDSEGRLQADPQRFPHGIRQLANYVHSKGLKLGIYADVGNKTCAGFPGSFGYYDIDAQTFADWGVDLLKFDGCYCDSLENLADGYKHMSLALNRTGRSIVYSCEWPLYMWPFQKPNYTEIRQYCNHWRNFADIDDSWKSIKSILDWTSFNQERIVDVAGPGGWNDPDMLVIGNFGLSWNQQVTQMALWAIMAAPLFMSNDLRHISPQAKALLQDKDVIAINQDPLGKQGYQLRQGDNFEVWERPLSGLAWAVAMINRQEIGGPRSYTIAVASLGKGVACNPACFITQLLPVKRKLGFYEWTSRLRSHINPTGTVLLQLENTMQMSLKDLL

In the case of `Cc1cc(=O)oc2cc(O[C@H]3O[C@H](CO)[C@H](O)[C@H](O)[C@H]3O)ccc12` [4-methylumbelliferyl-alpha-D-galactopyranoside], the Michaelis constant (Km) (as a rule, the substrate concentration at which the rate is half of its maximum) is 2000 µM.
